From patent US11478474B2, “2-(3′-(hydroxymethyl)-1-methyl-5-((5-(2-methyl-4-(oxetan-3-yl)piperazin-1-yl)pyridin-2-yl)amino)-6-oxo-1,6-dihydro-[3,4′-bipyridin]-2′-yl)-7,7-dimethyl-7,8-dihydro-2H-cyclopenta[4,5]pyrrolo[1,2-a]pyrazin-1(6H)-one as a BTK inhibitor” (HUTCHISON MEDIPHARMA LIMITED, priority 2020, dated 2022)

Assays:
[1] = biological target: BTK recombinant protein (Homo sapiens (Human), UniProt Q06187); test: Determination of biochemical BTK (Z'-LYTE kinase assay)
Outline: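 Human BTK recombinant kinase (3.32 nM final) was preincubated with compound for 30 min at 4 °C. Reaction ran 1 h at room temperature with Tyr01 FRET peptide (2 μM) and ATP (32 μM); development protease then added. Coumarin 445 nm/fluorescein 520 nm emission ratio (400 nm excitation) gave inhibition across 8 concentrations, 3000–1.37 nM.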

[2] = biological target: phosphorylated BTK in Ramos cells (Homo sapiens (Human), UniProt Q06187); test: Determination of phosphorylated BTK in Ramos cells (BTK phospho-Y223 HTRF); type: cell-based; settings: anti-human IgM + hydrogen peroxide stimulation
Sequence of phosphorylated BTK in Ramos cells (Q06187 whole entry): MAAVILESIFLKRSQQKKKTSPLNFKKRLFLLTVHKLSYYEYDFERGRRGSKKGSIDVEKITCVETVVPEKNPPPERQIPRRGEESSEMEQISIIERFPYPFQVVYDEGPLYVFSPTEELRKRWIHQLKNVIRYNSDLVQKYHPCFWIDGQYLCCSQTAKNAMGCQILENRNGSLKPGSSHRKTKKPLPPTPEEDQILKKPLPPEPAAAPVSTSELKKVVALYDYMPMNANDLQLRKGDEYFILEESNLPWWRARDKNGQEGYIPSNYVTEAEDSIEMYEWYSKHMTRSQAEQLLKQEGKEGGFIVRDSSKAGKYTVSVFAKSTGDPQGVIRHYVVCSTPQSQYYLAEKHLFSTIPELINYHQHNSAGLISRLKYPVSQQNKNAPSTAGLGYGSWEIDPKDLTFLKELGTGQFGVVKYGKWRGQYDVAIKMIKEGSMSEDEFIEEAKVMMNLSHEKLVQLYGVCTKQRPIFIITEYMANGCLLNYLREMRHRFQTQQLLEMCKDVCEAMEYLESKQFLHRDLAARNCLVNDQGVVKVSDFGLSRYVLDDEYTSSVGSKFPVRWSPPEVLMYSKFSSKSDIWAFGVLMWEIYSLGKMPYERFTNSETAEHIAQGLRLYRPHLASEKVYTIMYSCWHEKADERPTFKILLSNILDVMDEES
Outline: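 Ramos cells starved 2 h in 1% FBS, then treated 1 h with compound (0.00018–3.0 μM, 0.3% DMSO). They were then stimulated 10 min at 37° C. with anti-human IgM (10 μg/mL) plus H2O2 (3.3 mM). Lysates read by BTK phospho-Y223 HTRF (665/615 nm ratio); IC50 fitted from inhibition normalized to stimulated and unstimulated controls.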

Sequence of BTK recombinant protein (Q06187 whole entry): as above

| Compound | IC50 [1] | IC50 [2] |
| --- | --- | --- |
| Cn1cc(Nc2cc(-c3ccnc(-n4ccn5c6c(cc5c4=O)CC(C)(C)C6)c3CO)nn(C)c2=O)nn1 [Compound 29] | 0.008 µM | 0.03 µM |
| C[C@H]1COCCN1c1ccc(Nc2cc(-c3ccnc(-n4ccn5c6c(cc5c4=O)CC(C)(C)C6)c3CO)cn(C)c2=O)nc1 [Compound 10] | 0.018 µM | 0.01 µM |
| Cc1ccc(Nc2cc(-c3ccnc(-n4ccn5c6c(cc5c4=O)CC(C)(C)C6)c3CO)cn(C)c2=O)nc1 [Compound 125] | 0.033 µM | 0.021 µM |
| COCCN1CCN(c2ccc(Nc3cc(-c4ccnc(-n5ncn6c7c(cc6c5=O)CC(C)(C)C7)c4CO)cn(C)c3=O)nc2)[C@@H](C)C1 [Compound 206] | 0.013 µM | 0.007 µM |
| CC1Cc2cc3c(=O)n(-c4nccc(-c5cc(Nc6ccc(N7CCN(C8COC8)C[C@@H]7C)cn6)c(=O)n(C)c5)c4CO)ccn3c2C1 (mixture of isomers) [Compound 160] | 0.003 µM | 0.011 µM |
| Cn1cc(-c2ccnc(-n3ncn4c5c(cc4c3=O)CC(C)(C)C5)c2CO)cc(Nc2ccc(N3CCN(C4COC4)CC3(C)C)cn2)c1=O [Compound 191] | 0.011 µM | 0.01 µM |
| [2H]C1(N2CCN(c3ccc(Nc4cc(-c5ccnc(-n6ccn7c8c(cc7c6=O)CC(C)(C)C8)c5CO)cn(C)c4=O)nc3)[C@@H](C)C2)COC1 [Compound 94] | 0.007 µM | 0.002 µM |
| COCCN1CCn2nc(Nc3cc(-c4ccnc(-n5ccn6c(c(F)c7ccccc76)c5=O)c4CO)cn(C)c3=O)cc2C1 [Compound 177] | 0.006 µM | 0.021 µM |
| C[C@H]1COCCN1c1ccc(Nc2cc(-c3ccnc(-n4ccn5c6c(cc5c4=O)CCC6)c3CO)cn(C)c2=O)nc1 [Compound 189] | 0.039 µM | 0.051 µM |
| Cn1cc(-c2ccnc(-n3ccn4c5c(cc4c3=O)CC(C)(C)C5)c2CO)cc(Nc2ccc(N3CCN(C4COC4)CC3)nn2)c1=O [Compound 222] | 0.008 µM | 0.008 µM |
| Cn1cc(-c2ccnc(-n3ccn4c5c(cc4c3=O)CC(C)(C)C5)c2CO)cc(Nc2ccc(N3CCC4C3CCN4C3COC3)cn2)c1=O (stereo not drawn) [Compound 109] | 0.02 µM | 0.004 µM |
| C[C@H]1CN(C2COC2)CCN1c1ccc(Nc2cc(-c3ccnc(-n4ccn5c6c(cc5c4=O)CC(C)(C)[C@H]6O)c3CO)cn(C)c2=O)nc1 [Compound 199] | 0.008 µM | 0.025 µM |
| Cn1cc(-c2ccnc(-n3ncn4c5c(cc4c3=O)CC(C)(C)C5)c2CO)cc(Nc2cc3n(n2)CCN(C#N)C3)c1=O [Compound 143] | 0.004 µM | 0.005 µM |
| Cn1cc(-c2ccnc(-n3ccn4c5c(cc4c3=O)CC(C)(C)C5)c2CO)cc(NC(=O)C2CC2)c1=O [Compound 89] | 0.011 µM | 0.008 µM |
| C[C@H]1CN(C2COC2)CCN1c1ccc(Nc2cc(-c3ccnc(-n4ccn5c6c(cc5c4=O)CC(C)(C)C6O)c3CO)cn(C)c2=O)nc1 (mixture of isomers) [Compound 182] | 0.008 µM | 0.034 µM |
| Cc1ccc(Nc2cc(-c3ccnc(-n4ccn5c6c(cc5c4=O)CC(C)(C)C6)c3CO)cn(C)c2=O)nn1 [Compound 85] | 0.011 µM | 0.002 µM |
| Cn1ccc(Nc2cc(-c3ccnc(-n4ccn5c6c(cc5c4=O)CC(C)(C)C6)c3CO)cn(C)c2=O)n1 [Compound 81] | 0.008 µM | 0.002 µM |
| Cn1cc(Nc2cc(-c3ccnc(-n4ccn5c6c(cc5c4=O)CC(C)(C)C6)c3CO)cn(C)c2=O)cn1 [Compound 86] | 0.016 µM | 0.006 µM |
| COCCN1CCn2nc(Nc3cc(-c4ccnc(-n5ccn6c7c(cc6c5=O)CC(C)(C)C7)c4CO)cn(C)c3=O)cc2[C@@H]1C [Compound 116] | 0.01 µM | 0.011 µM |
| CC(C)n1cc(Nc2nc(-c3ccnc(-n4ccn5c6c(cc5c4=O)CC(C)(C)C6)c3CO)cn(C)c2=O)nn1 [Compound 4] | 0.756 µM | 0.48 µM |
| COCCN(c1ccc(Nc2cc(-c3ccnc(-n4ccn5c6c(cc5c4=O)CC(C)(C)C6)c3CO)cn(C)c2=O)nc1)C(C)C [Compound 51] | 0.01 µM | 0.008 µM |
| Cn1cc(-c2ccnc(-n3ccn4c(c(F)c5ccccc54)c3=O)c2CO)cc(Nc2cc3n(n2)CCN(C2COC2)C3)c1=O [Compound 178] | 0.006 µM | 0.012 µM |
| Cn1cc(-c2ccnc(-n3ncn4c5c(cc4c3=O)CCCC5)c2CO)cc(Nc2cc3n(n2)CCN(C2COC2)C3)c1=O [Compound 166] | 0.035 µM | 0.121 µM |
| [2H]C(O)c1c(-c2cc(Nc3ccc(N4CCN(C5([2H])COC5)C[C@@H]4C)cn3)c(=O)n(C)c2)ccnc1-n1ccn2c3c(cc2c1=O)CC(C)(C)C3 (mixture of isomers) [Compound 101] | 0.006 µM | 0.002 µM |
| CC(O)CN(CCNc1ccc(Nc2cc(-c3ccnc(-n4ccn5c6c(cc5c4=O)CC(C)(C)C6)c3CO)cn(C)c2=O)nc1)C1COC1 (racemic) [Compound 179] | 0.019 µM | 0.07 µM |
| Cn1cc(-c2ccnc(-n3ccn4c5c(cc4c3=O)CC(C)(C)C5)c2CO)cc(Nc2ccc(N[C@@H]3CC[C@@H](CO)OC3)cn2)c1=O [Compound 46] | 0.008 µM | 0.005 µM |
| C[C@H]1CN(C2COC2)CCN1c1ccc(Nc2cc(-c3cncc(-n4ccn5c6c(cc5c4=O)CC(C)(C)C6)c3CO)cn(C)c2=O)nc1 [Compound 216] | 0.011 µM | 0.007 µM |
| C[C@H]1CN(C2COC2)CCN1c1ccc(Nc2cc(-c3ccnc(-n4ccn5c(cc6c(F)cccc65)c4=O)c3CO)cn(C)c2=O)nc1 [Compound 53] | 0.033 µM | 0.025 µM |
| COCCn1cc(Nc2cc(-c3ccnc(-n4ccn5c6c(cc5c4=O)CC(C)(C)C6)c3CO)cn(C)c2=O)cn1 [Compound 175] | 0.071 µM | 0.04 µM |
| C[C@H]1CN(C(CO)CO)CCN1c1ccc(Nc2cc(-c3ccnc(-n4ccn5c6c(cc5c4=O)CC(C)(C)C6)c3CO)cn(C)c2=O)nc1 [Compound 185] | 0.013 µM | 0.013 µM |
